From ChEMBL document CHEMBL1201861, “Genomics of Drug Sensitity in Cancer screening data, Wellcome Trust Sanger Institute”

Columns and labels:
CPC-N = experiment: cells; format: functional, cell-based; details: Homo sapiens;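 also: growth inhibition of CPC-N cells, with a cell viability assay as the readout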
Description: SANGER: Inhibition of human CPC-N cell growth in a cell viability assay.

Ca9-22 = experiment: cells; format: functional, cell-based; details: Homo sapiens;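 also: growth inhibition of Ca9-22 cells, read out with a cell viability assay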
Description: SANGER: Inhibition of human Ca9-22 cell growth in a cell viability assay.

Capan-2 = experiment: cells; format: functional, cell-based; details: Homo sapiens;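 also: Capan-2 cell growth inhibition, read out with a viability assay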
Description: SANGER: Inhibition of human Capan-2 cell growth in a cell viability assay.

D-542MG = experiment: cells; format: functional, cell-based; details: Homo sapiens
Description: SANGER: Inhibition of human D-542MG cell growth in a cell viability assay.

DMS-153 = experiment: cells; format: functional, cell-based; details: Homo sapiens
Description: SANGER: Inhibition of human DMS-153 cell growth in a cell viability assay.

EGI-1 = experiment: cells; format: functional, cell-based; details: Homo sapiens;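 also: cell viability readout used to gauge growth inhibition of EGI-1 cells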
Description: SANGER: Inhibition of human EGI-1 cell growth in a cell viability assay.

G-402 = experiment: cells; format: functional, cell-based; details: Homo sapiens
Description: SANGER: Inhibition of human G-402 cell growth in a cell viability assay.

GMS-10 = experiment: cells; format: functional, cell-based; details: Homo sapiens;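 also: growth inhibition of GMS-10 cells, read out as cell viability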
Description: SANGER: Inhibition of human GMS-10 cell growth in a cell viability assay.

H4 = experiment: cells; format: functional, cell-based; details: Homo sapiens
Description: SANGER: Inhibition of human H4 cell growth in a cell viability assay.

HSC-3 = experiment: cells; format: functional, cell-based; details: Homo sapiens
Description: SANGER: Inhibition of human HSC-3 cell growth in a cell viability assay.

HuP-T4 = experiment: cells; format: functional, cell-based; details: Homo sapiens;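 also: cell viability assay measuring how much HuP-T4 cell growth is inhibited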
Description: SANGER: Inhibition of human HuP-T4 cell growth in a cell viability assay.

J82 = experiment: cells; format: functional, cell-based; details: Homo sapiens;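 also: growth inhibition of J82 cells, read out with a cell viability assay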
Description: SANGER: Inhibition of human J82 cell growth in a cell viability assay.

JIYOYE = experiment: cells; format: functional, cell-based; details: Homo sapiens
Description: SANGER: Inhibition of human JiyoyeP-2003 cell growth in a cell viability assay.

K052 = experiment: cells; format: functional, cell-based; details: Homo sapiens;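 also: Read-out from a cell viability assay, IC50 reflecting suppression of K052 cell growth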
Description: SANGER: Inhibition of human K052 cell growth in a cell viability assay.

KP-N-YN = experiment: cells; format: functional, cell-based; details: Homo sapiens;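 also: growth inhibition of KP-N-YN cells, read out with a cell viability assay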
Description: SANGER: Inhibition of human KP-N-YN cell growth in a cell viability assay.

KYSE-140 = experiment: cells; format: functional, cell-based; details: Homo sapiens;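 also: cell viability assay measuring growth inhibition in human KYSE-140 cells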
Description: SANGER: Inhibition of human KYSE-140 cell growth in a cell viability assay.

KYSE-410 = experiment: cells; format: functional, cell-based; details: Homo sapiens;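 also: growth inhibition of KYSE-410 cells, measured through a cell viability readout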
Description: SANGER: Inhibition of human KYSE-410 cell growth in a cell viability assay.

LC4-1 = experiment: cells; format: functional, cell-based; details: Homo sapiens;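 also: growth inhibition of LC4-1 cells, read out with a cell viability assay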
Description: SANGER: Inhibition of human LC4-1 cell growth in a cell viability assay.

LCLC-97TM1 = experiment: cells; format: functional, cell-based; details: Homo sapiens;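 also: cell viability assay measuring growth inhibition of human LCLC-97TM1 cells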
Description: SANGER: Inhibition of human LCLC-97TM1 cell growth in a cell viability assay.

LU-165 = experiment: cells; format: functional, cell-based; details: Homo sapiens
Description: SANGER: Inhibition of human LU-165 cell growth in a cell viability assay.

LU-99A = experiment: cells; format: functional, cell-based; details: Homo sapiens;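 also: growth inhibition of LU-99A cells, read out with a cell viability assay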
Description: SANGER: Inhibition of human LU-99A cell growth in a cell viability assay.

M14 = experiment: cells; format: functional, cell-based; details: Homo sapiens;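 also: growth inhibition of M14 cells, read out with a cell viability assay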
Description: SANGER: Inhibition of human M14 cell growth in a cell viability assay.

MDA-MB-134-VI = experiment: cells; format: functional, cell-based; details: Homo sapiens
Description: SANGER: Inhibition of human MDA-MB-134-VI cell growth in a cell viability assay.

MDA-MB-157 = experiment: cells; format: functional, cell-based; details: Homo sapiens
Description: SANGER: Inhibition of human MDA-MB-157 cell growth in a cell viability assay.

MDA-MB-453 = experiment: cells; format: functional, cell-based; details: Homo sapiens
Description: SANGER: Inhibition of human MDA-MB-453 cell growth in a cell viability assay.

MEL-JUSO = experiment: cells; format: functional, cell-based; details: Homo sapiens;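 also: growth inhibition of human MEL-JUSO cells, read out with a cell viability assay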
Description: SANGER: Inhibition of human MEL-JUSO cell growth in a cell viability assay.

NB1 = experiment: cells; format: functional, cell-based; details: Homo sapiens
Description: SANGER: Inhibition of human NB1 cell growth in a cell viability assay.

NB12 = experiment: cells; format: functional, cell-based; details: Homo sapiens;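 also: growth inhibition of human NB12 cells, read out by a cell viability assay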
Description: SANGER: Inhibition of human NB12 cell growth in a cell viability assay.

NCI-H1693 = experiment: cells; format: functional, cell-based; details: Homo sapiens;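 also: growth inhibition of the human cell line, read out with a cell viability assay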
Description: SANGER: Inhibition of human NCI-H1693 cell growth in a cell viability assay.

NCI-H187 = experiment: cells; format: functional, cell-based; details: Homo sapiens;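 also: growth inhibition of NCI-H187 cells, read out as cell viability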
Description: SANGER: Inhibition of human NCI-H187 cell growth in a cell viability assay.

NCI-H1993 = experiment: cells; format: functional, cell-based; details: Homo sapiens;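 also: growth inhibition of the cancer cell line, assessed with a cell viability assay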
Description: SANGER: Inhibition of human NCI-H1993 cell growth in a cell viability assay.

NCI-H2030 = experiment: cells; format: functional, cell-based; details: Homo sapiens;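 also: growth inhibition of human NCI-H2030 cells, read out by a cell viability assay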
Description: SANGER: Inhibition of human NCI-H2030 cell growth in a cell viability assay.

NCI-H2081 = experiment: cells; format: functional, cell-based; details: Homo sapiens;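 also: growth inhibition of human NCI-H2081 cells, read out with a cell viability assay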
Description: SANGER: Inhibition of human NCI-H2081 cell growth in a cell viability assay.

NCI-H2171 = experiment: cells; format: functional, cell-based; details: Homo sapiens;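 also: growth inhibition of human NCI-H2171 cells, read out by a cell viability assay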
Description: SANGER: Inhibition of human NCI-H2171 cell growth in a cell viability assay.

NCI-H64 = experiment: cells; format: functional, cell-based; details: Homo sapiens;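 also: growth inhibition of NCI-H64 cells, read out with a cell viability assay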
Description: SANGER: Inhibition of human NCI-H64 cell growth in a cell viability assay.

NCI-H719 = experiment: cells; format: functional, cell-based; details: Homo sapiens;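 also: growth inhibition of the cultured cell line, read out with a viability assay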
Description: SANGER: Inhibition of human NCI-H719 cell growth in a cell viability assay.

NCI-H810 = experiment: cells; format: functional, cell-based; details: Homo sapiens;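 also: IC50 reflects inhibition of cancer cell line growth, read out with a cell viability assay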
Description: SANGER: Inhibition of human NCI-H810 cell growth in a cell viability assay.

SNU-16 = experiment: cells; format: functional, cell-based; details: Homo sapiens;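 also: growth inhibition of human SNU-16 cells, determined with a cell viability readout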
Description: SANGER: Inhibition of human NCI-SNU-16 cell growth in a cell viability assay.

NUGC-3 = experiment: cells; format: functional, cell-based; details: Homo sapiens;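 also: growth inhibition of human NUGC-3 cells, read out with a cell viability assay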
Description: SANGER: Inhibition of human NUGC-3 cell growth in a cell viability assay.

OAW-42 = experiment: cells; format: functional, cell-based; details: Homo sapiens;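 also: growth inhibition of OAW-42 cells, read out with a cell viability assay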
Description: SANGER: Inhibition of human OAW-42 cell growth in a cell viability assay.

OE19 = experiment: cells; format: functional, cell-based; details: Homo sapiens;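 also: growth inhibition of OE19 cells, measured through a cell viability read-out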
Description: SANGER: Inhibition of human OE19 cell growth in a cell viability assay.

OVCAR-3 = experiment: cells; format: functional, cell-based; details: Homo sapiens;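 also: growth inhibition of human OVCAR-3 cells, determined by a cell viability assay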
Description: SANGER: Inhibition of human OVCAR-3 cell growth in a cell viability assay.

P31-FUJ = experiment: cells; format: functional, cell-based; details: Homo sapiens;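 also: growth inhibition of P31-FUJ cells, read out with a viability assay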
Description: SANGER: Inhibition of human P31-FUJ cell growth in a cell viability assay.

PF-382 = experiment: cells; format: functional, cell-based; details: Homo sapiens
Description: SANGER: Inhibition of human PF-382 cell growth in a cell viability assay.

RERF-LC-MS = experiment: cells; format: functional, cell-based; details: Homo sapiens;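 also: growth inhibition of human RERF-LC-MS cells, read out by a cell viability assay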
Description: SANGER: Inhibition of human RERF-LC-MS cell growth in a cell viability assay.

RPMI-7951 = experiment: cells; format: functional, cell-based; details: Homo sapiens
Description: SANGER: Inhibition of human RPMI-7951 cell growth in a cell viability assay.

SK-HEP1 = experiment: cells; format: functional, cell-based, SK-HEP-1; details: Homo sapiens;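 also: cell viability readout used to quantify reduction in proliferation of human SK-HEP-1 cells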
Description: SANGER: Inhibition of human SK-HEP-1 cell growth in a cell viability assay.

SK-MM-2 = experiment: cells; format: functional, cell-based; details: Homo sapiens;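 also: growth inhibition of human SK-MM-2 cells, read out with a cell viability assay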
Description: SANGER: Inhibition of human SK-MM-2 cell growth in a cell viability assay.

SR = experiment: cells; format: functional, cell-based; details: Homo sapiens
Description: SANGER: Inhibition of human SR cell growth in a cell viability assay.

A2058 = experiment: cells; format: functional, cell-based; details: Homo sapiens;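 also: reduction of A2058 cell growth, read out with a viability assay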
Description: SANGER: Inhibition of human A2058 cell growth in a cell viability assay.

AGS = experiment: cells; format: functional, cell-based; details: Homo sapiens;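 also: growth inhibition of AGS cells, determined with a cell viability assay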
Description: SANGER: Inhibition of human AGS cell growth in a cell viability assay.

BFTC-909 = experiment: cells; format: functional, cell-based; details: Homo sapiens
Description: SANGER: Inhibition of human BFTC-909 cell growth in a cell viability assay.

BL-41 = experiment: cells; format: functional, cell-based; details: Homo sapiens;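 also: growth inhibition of human BL-41 cells, read out with a cell viability assay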
Description: SANGER: Inhibition of human BL-41 cell growth in a cell viability assay.

BT-20 = experiment: cells; format: functional, cell-based; details: Homo sapiens;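 also: cell viability assay measuring suppression of growth in human BT-20 cells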
Description: SANGER: Inhibition of human BT-20 cell growth in a cell viability assay.

C32 = experiment: cells; format: functional, cell-based; details: Homo sapiens;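 also: cell viability assay, with IC50 reflecting inhibition of C32 cell growth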
Description: SANGER: Inhibition of human C32 cell growth in a cell viability assay.

CAKI-1 = experiment: cells; format: functional, cell-based; details: Homo sapiens;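 also: growth inhibition of CAKI-1 cells, measured by a cell viability assay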
Description: SANGER: Inhibition of human CAKI-1 cell growth in a cell viability assay.

TE-441-T = experiment: cells; format: functional, cell-based; details: Homo sapiens
Description: SANGER: Inhibition of human TE-441-T cell growth in a cell viability assay.

TYK-nu = experiment: cells; format: functional, cell-based; details: Homo sapiens;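 also: growth inhibition of human TYK-nu cells, read out by a cell viability assay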
Description: SANGER: Inhibition of human TYK-nu cell growth in a cell viability assay.

U-251 = experiment: cells; format: functional, cell-based; details: Homo sapiens;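 also: growth inhibition of human U-251 cells, read out through a cell viability assay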
Description: SANGER: Inhibition of human U251 cell growth in a cell viability assay.

UACC-812 = experiment: cells; format: functional, cell-based; details: Homo sapiens
Description: SANGER: Inhibition of human UACC-812 cell growth in a cell viability assay.

UMUC3 = experiment: cells; format: functional, cell-based; details: Homo sapiens;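 also: growth inhibition of human UM-UC-3 cells, read out with a cell viability assay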
Description: SANGER: Inhibition of human UM-UC-3 cell growth in a cell viability assay.

YAPC = experiment: cells; format: functional, cell-based; details: Homo sapiens;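 also: growth inhibition of YAPC cells, measured with a cell viability assay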
Description: SANGER: Inhibition of human YAPC cell growth in a cell viability assay.

YT = experiment: cells; format: functional, cell-based; details: Homo sapiens
Description: SANGER: Inhibition of human YT cell growth in a cell viability assay.

CESS = experiment: SANGER: Inhibition of human CESS cell growth in a cell viability assay.; format: functional, cell-based
COLO-680N = experiment: cells; format: functional, cell-based; details: Homo sapiens;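 also: cell viability assay used to measure inhibition of COLO-680N cell growth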
Description: SANGER: Inhibition of human COLO-680N cell growth in a cell viability assay.

In the case of `CCNC(=O)c1noc(-c2cc(C(C)C)c(O)cc2O)c1-c1ccc(CN2CCOCC2)cc1` [LUMINESPIB], the IC50 (CPC-N) is reported as over 256 nM, the IC50 (Ca9-22) is reported as 28 nM and the IC50 (Capan-2) is reported as 6.38 nM. It also gave an IC50 (D-542MG) of 140 nM, an IC50 (DMS-153) of 77.3 nM and an IC50 (EGI-1) of 180 nM. It also gave an IC50 (G-402) of 36.1 nM, an IC50 (GMS-10) of 134 nM and an IC50 (H4) of 13.7 nM. It also gave an IC50 (HSC-3) of 6.41 nM, an IC50 (HuP-T4) of 65.9 nM and an IC50 (J82) of 30.1 nM. The IC50 (JIYOYE) was 33.9 nM, the IC50 (K052) was 171 nM and the IC50 (KP-N-YN) was over 256 nM. For the same compound, the IC50 (KYSE-140) was 20.2 nM, the IC50 (KYSE-410) was 15.9 nM and the IC50 (LC4-1) was 115 nM. The IC50 (LCLC-97TM1) was 13 nM, the IC50 (LU-165) was 154 nM and the IC50 (LU-99A) was 72.9 nM. The IC50 (M14) was 218 nM, the IC50 (MDA-MB-134-VI) was 174 nM and the IC50 (MDA-MB-157) was over 256 nM. The IC50 (MDA-MB-453) was over 256 nM, the IC50 (MEL-JUSO) was 16.8 nM and the IC50 (NB1) was 144 nM. For the same compound, the IC50 (NB12) was 95.2 nM, the IC50 (NCI-H1693) was 36.2 nM and the IC50 (NCI-H187) was over 256 nM. It also gave an IC50 (NCI-H1993) of over 256 nM, an IC50 (NCI-H2030) of 17 nM and an IC50 (NCI-H2081) of 152 nM. The IC50 (NCI-H2171) was 186 nM, the IC50 (NCI-H64) was over 256 nM and the IC50 (NCI-H719) was over 256 nM. The IC50 (NCI-H810) was 17.2 nM, the IC50 (SNU-16) was over 256 nM and the IC50 (NUGC-3) was 48.3 nM. For the same compound, the IC50 (OAW-42) was 37.5 nM, the IC50 (OE19) was 19.5 nM and the IC50 (OVCAR-3) was 141 nM. It also gave an IC50 (P31-FUJ) of over 256 nM, an IC50 (PF-382) of 48.3 nM and an IC50 (RERF-LC-MS) of 134 nM. It also gave an IC50 (RPMI-7951) of 6.31 nM, an IC50 (SK-HEP1) of 3.36 nM and an IC50 (SK-MM-2) of 111 nM. The IC50 (SR) was 27.9 nM, the IC50 (A2058) was 29.3 nM and the IC50 (AGS) was 10.6 nM. For the same compound, the IC50 (BFTC-909) was 31.3 nM, the IC50 (BL-41) was 56 nM and the IC50 (BT-20) was over 256 nM. The IC50 (C32) was over 256 nM, the IC50 (CAKI-1) was 251 nM and the IC50 (TE-441-T) was 49.3 nM. For the same compound, the IC50 (TYK-nu) was over 256 nM, the IC50 (U-251) was 47.6 nM and the IC50 (UACC-812) was over 256 nM. The IC50 (UMUC3) was 49.5 nM, the IC50 (YAPC) was over 256 nM and the IC50 (YT) was 11.8 nM. It also gave an IC50 (CESS) of 31.2 nM and an IC50 (COLO-680N) of 44.1 nM.

In the case of `C/C=C(/C)C(=O)O[C@H]1C(C)=C2[C@H]([C@@H]1OC(=O)CCCCCCC)[C@@](C)(OC(C)=O)C[C@H](OC(=O)CCC)[C@@]1(O)[C@H]2OC(=O)[C@@]1(C)O` [THAPSIGARGIN], the IC50 (CPC-N) is reported as 10 nM, the IC50 (Ca9-22) is reported as 22.8 nM and the IC50 (Capan-2) is reported as under 2 nM. It also gave an IC50 (D-542MG) of 6.93 nM, an IC50 (DMS-153) of 19.9 nM and an IC50 (EGI-1) of 21.7 nM. For the same compound, the IC50 (G-402) was 3.95 nM, the IC50 (GMS-10) was over 512 nM and the IC50 (H4) was 1.98 nM. It also gave an IC50 (HSC-3) of 11.3 nM, an IC50 (HuP-T4) of 1.3 nM and an IC50 (J82) of 7.91 nM. It also gave an IC50 (JIYOYE) of 7.21 nM, an IC50 (K052) of 495 nM and an IC50 (KP-N-YN) of 27 nM. The IC50 (KYSE-140) was under 2 nM, the IC50 (KYSE-410) was under 2 nM and the IC50 (LC4-1) was 42.3 nM. For the same compound, the IC50 (LCLC-97TM1) was under 2 nM, the IC50 (LU-165) was over 512 nM and the IC50 (LU-99A) was 1.36 nM. The IC50 (M14) was 14 nM, the IC50 (MDA-MB-134-VI) was over 512 nM and the IC50 (MDA-MB-157) was over 512 nM. For the same compound, the IC50 (MDA-MB-453) was over 512 nM, the IC50 (MEL-JUSO) was under 2 nM and the IC50 (NB1) was 27.1 nM. For the same compound, the IC50 (NB12) was 13.2 nM, the IC50 (NCI-H1693) was over 512 nM and the IC50 (NCI-H187) was 53.2 nM. For the same compound, the IC50 (NCI-H1993) was over 512 nM, the IC50 (NCI-H2030) was 4.05 nM and the IC50 (NCI-H2081) was over 512 nM. For the same compound, the IC50 (NCI-H2171) was 12.5 nM, the IC50 (NCI-H64) was 6.45 nM and the IC50 (NCI-H719) was over 512 nM. For the same compound, the IC50 (NCI-H810) was 7.14 nM, the IC50 (SNU-16) was 189 nM and the IC50 (NUGC-3) was under 2 nM. It also gave an IC50 (OAW-42) of 27 nM, an IC50 (OE19) of 36.5 nM and an IC50 (OVCAR-3) of under 2 nM. The IC50 (P31-FUJ) was 72.1 nM, the IC50 (PF-382) was 25.9 nM and the IC50 (RERF-LC-MS) was 1.37 nM. It also gave an IC50 (RPMI-7951) of 3.98 nM, an IC50 (SK-HEP1) of 7.8 nM and an IC50 (SK-MM-2) of 45.6 nM. The IC50 (SR) was over 512 nM, the IC50 (A2058) was 2.69 nM and the IC50 (AGS) was 8.78 nM. For the same compound, the IC50 (BFTC-909) was 0.968 nM, the IC50 (BL-41) was under 2 nM and the IC50 (BT-20) was over 512 nM. For the same compound, the IC50 (C32) was 309 nM, the IC50 (CAKI-1) was 83.4 nM and the IC50 (TE-441-T) was 48.8 nM. It also gave an IC50 (TYK-nu) of under 2 nM, an IC50 (U-251) of under 2 nM and an IC50 (UACC-812) of over 512 nM. It also gave an IC50 (UMUC3) of 1.21 nM, an IC50 (YAPC) of 89.6 nM and an IC50 (YT) of 13.1 nM. The IC50 (CESS) was 35.4 nM and the IC50 (COLO-680N) was 18 nM.
